Our source for the IC50 and GI50 values is patent publication US20220306659A1, “COMPOUND INHIBITING AND INDUCING DEGRADATION OF EGFR AND ALK” (BEIJING TIDE PHARMACEUTICAL CO., LTD., priority 2019, published 2022).

One assay deals with EGFR^L858R/T790M/C797S (Homo sapiens, UniProt P00533, C797S/L858R/T790M). The experiment in a line: EGFR inhibitory activity assay (TK-substrate-biotin/ATP, 665/615 ratio). In kind it is biochemical. Conditions: kinase inhibition. As to the method:
EGFR Inhibitory Activity Assay
(1) A compound stock solution was prepared and diluted 3× to obtain a compound dilution; 10 nL of the compound dilution was transferred to a 384-well plate (784075, Greiner) by Echo 550;
(2) The plate was sealed, and centrifuged at 1,000 g for 1 min;
(4) 5 μl of the 2×EGFR protein working solution was added to the 384-well plate from step (2), centrifuged at 1,000 g for 30 s, and allowed to stand at room temperature (mixed thoroughly) for 10 min;
(6) 5 µL of the TK-substrate-biotin and ATP (the mixture prepared in step (5)) was added to the 384-well plate from step (4) to initiate the reaction;
(7) The mixture was centrifuged at 1,000 g for 30 s; the plate was sealed, and allowed to stand (and reacted) at room temperature for 40 min;
(8) 4×Sa-XL 665 and TK-antibody-Cryptate were prepared with detection buffer;
(9) 5 µL of the Sa-XL 665 and 5 µL of the TK-antibody-Cryptate were added successively to the 384-well plate from step (7);
(10) The mixture was centrifuged at 1,000 g for 30 s, and allowed to stand (reacted) at room temperature for 1 h;
(11) The fluorescence values were read at 615 nm and 665 nm by enzyme labeling instrument (PerkinElmer, 74785).
The ratio (665/615) of each well was calculated.
(§1) Formula of inhibition rate (%): […]
Ratiocmpd: Ratio (665/615) value of assay compound.
Ratiopositive: Average ratio (665/615) value of positive control.
Ratiovehicle: Average ratio (665/615) value of negative control.
(§2) The nonlinear regression curve (dose response-variable slope) between the value of inhibition rate (%) and the logarithm of compound concentration was fitted with graphpad prism 8.0, the effect dose curve of compound was drawn, and the IC50 value was calculated.

Assay [1] concerns the target Ba/F3(EGFR^L858R/T790M/C797S) cells (Homo sapiens, UniProt P00533, T790M/C797S/L858R, cells depend on it). Kind of assay: Assay of activity on Ba/F3 cells (CTG, 72 h). Conditions: read-out: IC50 (nM) Ba/F3 (EGFR^L858R/T790M/C797S). In kind it is cell-based. The method, boiled down:
(§3)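 Ba/F3 cells dependent on each EGFR triple mutant were exposed to 3-fold compound dilutions for 72 h at 37° C, 5% CO2, with CellTiter-Glo luminescence as the read-out.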

The next assay deals with ALK (Homo sapiens, UniProt Q9UM73). The experiment in a line: Assay of activity on ALK kinase. To be noted: kinase inhibition. In kind it is biochemical. The protocol: (§4) Assay of activity on ALK kinase
(§5) (1) A compound stock solution was prepared;
(§6) (2) The compound stock solution was diluted 3× to obtain a compound dilution;
(§7) (5) 5 μl of the 2× kinase working solution was added to the reaction plate, centrifuged at 1,000 rpm for 1 min, and incubated at 25° C. for 15 min;
(§8) (7) 5 μl of the TK-substrate-biotin and ATP (the mixture prepared in step (6)) was added to initiate the reaction;
(§9) (8) The mixture was centrifuged at 1,000 g for 30 s; the plate was sealed, and incubated at 25° C. for 60 min;
(§10) (11) The mixture was centrifuged at 1,000 g for 1 min, and incubated at 25° C. for 60 min;
as §1, §2
(§11) Y=Bottom+(Top−Bottom)/(1+10^((LogIC50−X)*Hill Slope))
(§12) X-axis: logarithm of compound concentration; Y axis: inhibition rate ([…])

In another assay the target is T1, Ba/F3(EML4-ALK) cells (Homo sapiens, UniProt Q9UM73).
T1 construct: fused on or other part: Q9HC35 (Echinoderm microtubule-associated protein-like 4)
The experiment in a line: Assay of activity on Ba/F3(EML4-ALK) cells (CTG, 72 h). In kind it is cell-based. To be noted: read-out: IC50 (nM) Ba/F3(EML4-ALK). The protocol:
Assay of activity on Ba/F3(EML4-ALK) cells
(1) Ba/F3(EML4-ALK) cells were cultured according to the requirements of ATCC, incubated in an incubator at 37° C. and 5% CO2, and analyzed by index; cells with viability of >90% can be used in the assay, and cells were seeded in a 384-well plate (PerkinElmer, 6007680) with 700 cells/well, 30 μl/well.
(2) A compound stock solution was prepared, and diluted 3× to obtain a compound dilution; 30 nL of the serial dilution was added to a 384-well plate (784075, Greiner) by Echo 550, and cells were incubated in an incubator at 37° C. and 5% CO2 for 72 h.
(3) 30 μL of CTG was added to each well, and the 384-well plate was shaken on a Plate shaker (QILINBEIER, QB-9002); the 384-well plate was incubated in the dark at 37° C. and 5% CO2 for 30 min, and the chemiluminescence value was read by Envision (PerkinElmer, EnVision 2104).
The percent inhibition rate (% inhibition) was calculated by the formula below
LUMcmpd: Luminescence value of assay compound.
LUMpositive: Average LUM value of positive drug at a concentration of 10 μM.
LUM^vehicle: Average LUM value of negative control group without drug treatment.
as §2
Y=Bottom+(Top−Bottom)/(1+10^((LogIC50−X)*HillSlope))
X-axis: logarithm of compound concentration; Y axis: inhibition rate (% inhibition).

In the next assay the target is ALK^G1202R (Homo sapiens, UniProt Q9UM73, G1202R). Kind of assay: Assay of activity on ALK kinase. In kind it is biochemical. Conditions: kinase inhibition. As to the method: as §4, §5, §6, §7, §8, §9, §10, §1, §2, §11, §12
Assay [2] addresses Ba/F3(EGFR^Del19/T790M/C797S) cells (Homo sapiens, UniProt P00533, DEL746-750/T790M/C797S, cells depend on it). Kind of assay: Assay of activity on Ba/F3 cells (CTG, 72 h). Conditions: read-out: IC50 (nM) Ba/F3 (EGFR^Del19/T790M/C797S). In kind it is cell-based. The method, boiled down: as §3

Sequence of EGFR^L858R/T790M/C797S (P00533 25-1210 T790M/C797S/L858R): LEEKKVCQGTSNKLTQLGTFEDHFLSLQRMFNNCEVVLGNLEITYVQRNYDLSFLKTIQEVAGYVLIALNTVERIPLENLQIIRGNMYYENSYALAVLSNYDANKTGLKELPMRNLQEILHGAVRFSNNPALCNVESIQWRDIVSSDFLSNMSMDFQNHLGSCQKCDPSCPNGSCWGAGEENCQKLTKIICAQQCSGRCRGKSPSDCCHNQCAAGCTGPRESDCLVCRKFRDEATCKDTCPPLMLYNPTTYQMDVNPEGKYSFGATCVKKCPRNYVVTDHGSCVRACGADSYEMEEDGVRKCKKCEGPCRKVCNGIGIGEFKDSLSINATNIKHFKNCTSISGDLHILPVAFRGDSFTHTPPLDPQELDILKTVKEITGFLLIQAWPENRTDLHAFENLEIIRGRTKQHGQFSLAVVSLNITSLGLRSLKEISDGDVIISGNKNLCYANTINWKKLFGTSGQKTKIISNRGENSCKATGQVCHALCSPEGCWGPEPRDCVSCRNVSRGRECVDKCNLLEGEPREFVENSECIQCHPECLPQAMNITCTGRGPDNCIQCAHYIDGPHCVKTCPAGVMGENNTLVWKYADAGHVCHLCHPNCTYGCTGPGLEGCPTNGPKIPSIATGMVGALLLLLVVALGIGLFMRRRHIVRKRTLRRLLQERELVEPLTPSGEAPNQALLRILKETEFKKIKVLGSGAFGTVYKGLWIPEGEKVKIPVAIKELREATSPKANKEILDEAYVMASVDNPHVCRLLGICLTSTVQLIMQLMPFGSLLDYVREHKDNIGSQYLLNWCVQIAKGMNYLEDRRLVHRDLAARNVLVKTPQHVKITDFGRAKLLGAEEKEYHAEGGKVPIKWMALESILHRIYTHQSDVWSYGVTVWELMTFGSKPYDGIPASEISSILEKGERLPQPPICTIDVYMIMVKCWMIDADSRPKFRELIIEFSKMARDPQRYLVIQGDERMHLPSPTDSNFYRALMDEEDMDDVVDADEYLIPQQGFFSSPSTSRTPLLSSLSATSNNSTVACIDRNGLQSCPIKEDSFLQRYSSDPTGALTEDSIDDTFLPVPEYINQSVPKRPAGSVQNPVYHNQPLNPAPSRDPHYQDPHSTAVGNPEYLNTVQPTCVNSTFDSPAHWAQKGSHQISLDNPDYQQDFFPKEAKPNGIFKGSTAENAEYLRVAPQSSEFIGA
Sequence of ALK (Q9UM73 19-1620): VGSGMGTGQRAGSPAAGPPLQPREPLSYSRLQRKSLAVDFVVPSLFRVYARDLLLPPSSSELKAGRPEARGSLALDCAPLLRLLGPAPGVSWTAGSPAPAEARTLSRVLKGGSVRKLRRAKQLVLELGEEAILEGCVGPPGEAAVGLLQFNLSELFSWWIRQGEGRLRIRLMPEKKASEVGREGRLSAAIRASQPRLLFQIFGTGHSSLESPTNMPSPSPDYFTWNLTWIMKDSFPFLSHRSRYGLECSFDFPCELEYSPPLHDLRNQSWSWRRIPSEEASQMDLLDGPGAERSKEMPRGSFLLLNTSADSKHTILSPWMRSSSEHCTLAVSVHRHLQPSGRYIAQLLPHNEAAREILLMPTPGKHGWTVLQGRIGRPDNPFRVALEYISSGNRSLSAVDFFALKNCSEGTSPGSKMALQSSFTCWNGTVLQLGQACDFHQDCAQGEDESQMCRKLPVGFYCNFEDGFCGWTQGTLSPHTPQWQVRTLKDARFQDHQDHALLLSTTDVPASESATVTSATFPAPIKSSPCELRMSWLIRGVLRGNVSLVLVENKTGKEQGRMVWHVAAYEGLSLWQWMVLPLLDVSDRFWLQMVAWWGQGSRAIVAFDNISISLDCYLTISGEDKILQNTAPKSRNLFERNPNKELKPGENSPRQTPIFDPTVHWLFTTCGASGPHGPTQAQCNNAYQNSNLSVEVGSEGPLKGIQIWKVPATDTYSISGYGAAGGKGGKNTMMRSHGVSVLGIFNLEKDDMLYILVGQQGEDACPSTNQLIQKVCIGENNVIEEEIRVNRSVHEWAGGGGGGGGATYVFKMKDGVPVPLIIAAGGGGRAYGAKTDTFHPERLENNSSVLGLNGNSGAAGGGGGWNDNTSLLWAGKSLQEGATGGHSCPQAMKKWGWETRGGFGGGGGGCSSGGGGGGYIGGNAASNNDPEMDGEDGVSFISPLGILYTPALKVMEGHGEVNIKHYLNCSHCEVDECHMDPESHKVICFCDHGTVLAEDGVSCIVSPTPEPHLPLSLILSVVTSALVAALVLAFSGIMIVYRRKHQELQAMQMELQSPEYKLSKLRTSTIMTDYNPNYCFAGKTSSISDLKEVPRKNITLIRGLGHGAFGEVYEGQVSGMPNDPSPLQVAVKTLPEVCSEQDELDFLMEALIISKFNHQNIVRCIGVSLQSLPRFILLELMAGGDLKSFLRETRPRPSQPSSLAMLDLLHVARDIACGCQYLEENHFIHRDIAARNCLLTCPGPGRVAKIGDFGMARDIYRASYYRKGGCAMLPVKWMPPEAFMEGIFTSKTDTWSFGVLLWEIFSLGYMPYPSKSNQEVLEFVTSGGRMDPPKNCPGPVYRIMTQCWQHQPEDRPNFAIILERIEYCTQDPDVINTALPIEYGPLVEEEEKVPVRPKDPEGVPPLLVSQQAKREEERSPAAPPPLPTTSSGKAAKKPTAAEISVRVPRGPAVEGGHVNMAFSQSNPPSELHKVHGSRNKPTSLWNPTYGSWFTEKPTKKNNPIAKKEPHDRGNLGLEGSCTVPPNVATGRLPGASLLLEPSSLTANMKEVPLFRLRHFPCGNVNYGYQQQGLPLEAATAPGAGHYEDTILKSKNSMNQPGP
Sequence of Ba/F3(EGFR^L858R/T790M/C797S) cells (P00533 whole entry T790M/C797S/L858R): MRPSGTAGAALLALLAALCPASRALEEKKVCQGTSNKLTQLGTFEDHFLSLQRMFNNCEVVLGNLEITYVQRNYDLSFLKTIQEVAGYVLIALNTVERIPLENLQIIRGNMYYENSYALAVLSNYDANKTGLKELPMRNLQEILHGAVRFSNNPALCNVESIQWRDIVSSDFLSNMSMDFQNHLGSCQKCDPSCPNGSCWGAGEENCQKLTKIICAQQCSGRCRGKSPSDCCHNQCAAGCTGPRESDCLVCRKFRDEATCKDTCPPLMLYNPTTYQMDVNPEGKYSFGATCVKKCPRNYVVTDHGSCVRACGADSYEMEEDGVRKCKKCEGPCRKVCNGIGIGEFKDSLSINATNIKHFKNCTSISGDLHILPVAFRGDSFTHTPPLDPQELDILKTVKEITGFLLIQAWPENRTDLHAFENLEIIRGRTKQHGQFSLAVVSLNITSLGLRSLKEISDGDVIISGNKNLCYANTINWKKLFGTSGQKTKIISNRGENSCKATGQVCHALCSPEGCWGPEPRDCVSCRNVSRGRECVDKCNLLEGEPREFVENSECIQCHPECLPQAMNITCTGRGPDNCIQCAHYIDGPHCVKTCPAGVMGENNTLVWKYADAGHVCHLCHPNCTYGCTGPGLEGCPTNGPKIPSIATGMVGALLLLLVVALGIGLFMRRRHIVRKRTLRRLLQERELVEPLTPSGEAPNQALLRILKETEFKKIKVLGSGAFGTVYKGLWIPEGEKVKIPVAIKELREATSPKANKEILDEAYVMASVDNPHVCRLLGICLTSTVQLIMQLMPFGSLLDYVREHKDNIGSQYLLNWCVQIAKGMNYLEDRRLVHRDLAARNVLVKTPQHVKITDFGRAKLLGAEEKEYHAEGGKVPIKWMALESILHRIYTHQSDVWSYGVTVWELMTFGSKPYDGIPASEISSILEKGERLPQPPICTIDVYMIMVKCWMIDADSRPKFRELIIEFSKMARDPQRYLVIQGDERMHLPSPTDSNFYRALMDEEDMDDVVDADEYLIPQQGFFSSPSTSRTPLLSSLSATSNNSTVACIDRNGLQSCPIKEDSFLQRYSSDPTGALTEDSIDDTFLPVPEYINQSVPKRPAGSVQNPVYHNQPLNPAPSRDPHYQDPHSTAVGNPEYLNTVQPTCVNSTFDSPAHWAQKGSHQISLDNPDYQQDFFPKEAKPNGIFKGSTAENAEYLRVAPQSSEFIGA
Sequence of ALK^G1202R (Q9UM73 19-1620 G1202R): as the sequence (Q9UM73 19-1620) above, with G1184R counted along it

One may read the IC50 as the concentration needed to halve the response being measured. Take `COc1cc(N2CCC(N3CCN(CCCCCC#Cc4cccc5c4CN(C4CCC(=O)NC4=O)C5=O)CC3)CC2)ccc1Nc1ncc(Cl)c(Nc2ccccc2P(C)(C)=O)n1` (stereo not shown) [Compound C1, 3-(4-(7-(4-(1-(4-((5-chloro-4-((2-(dimethylphosphoryl)phenyl)amino)pyrimidin-2-yl)amino)-3-methoxyphenyl)piperidin-4-yl)piperazin-1-yl)hept-1-yn-1-yl)-1-oxoisoindolin-2-yl)piperidine-2,6-dione]: the IC50 at EGFR^L858R/T790M/C797S and at ALK was 1 to 100 nM each time. Moreover, the GI50 (in assay [1]; at Ba/F3(EML4-ALK) cells) was 1 to 100 nM each time.
`COc1cc(N2CCC(N3CCN(CC(=O)N4CCC(CCOc5cccc6c5C(=O)N(C5CCC(=O)NC5=O)C6=O)CC4)CC3)CC2)ccc1Nc1ncc(Cl)c(Nc2ccccc2P(C)(C)=O)n1` (stereo not shown) [Compound C4, 4-(2-(1-(2-(4-(1-(4-((5-chloro-4-((2-(dimethylphosphoryl)phenyl)amino)pyrimidin-2-yl)amino)-3-methoxyphenyl)piperidin-4-yl)piperazin-1-yl)acetyl)piperidin-4-yl)ethoxy)-2-(2,6-dioxopiperidin-3-yl)isoindoline-1,3-dione]: the IC50 at EGFR^L858R/T790M/C797S was in the range of 101 to 200 nM; against ALK, 1 to 100 nM; against ALK^G1202R, 101 to 200 nM. Also, the GI50 in assay [1] was 101 to 200 nM.
On to `COc1cc(N2CCC(N3CCN(C(=O)C(C)(C)COC(=O)COc4cccc5c4C(=O)N(C4CCC(=O)NC4=O)C5=O)CC3)CC2)ccc1Nc1ncc(Cl)c(Nc2ccccc2P(C)(C)=O)n1` (stereo not shown) [Compound C6, 2-((2-(2,6-dioxopiperidin-3-yl)-1,3-dioxoisoindolin-4-yl)oxy)acetic acid 3-(4-(1-(4-((5-Chloro-4-((2-(dimethylphosphoryl)phenyl)amino)pyrimidin-2-yl)amino)-3-methoxyphenyl)piperidin-4-yl)piperazin-1-yl)-2,2-dimethyl-3-oxopropyl ester], for which the IC50 on EGFR^L858R/T790M/C797S was 101 to 200 nM; on ALK, 1 to 100 nM; against ALK^G1202R, 1 to 100 nM. The GI50 in assay [1] is 201 to 300 nM.
With `COc1cc(N2CCC(N3CCN(CC(=O)N4CC(Oc5cccc6c5C(=O)N(C5CCC(=O)NC5=O)C6=O)C4)CC3)CC2)ccc1Nc1ncc(Cl)c(Nc2ccccc2P(C)(C)=O)n1` (stereo not shown) [Compound C93, 4-((1-(2-(4-(1-(4-((5-chloro-4-((2-(dimethylphosphoryl)phenyl)amino)pyrimidin-2-yl)amino)-3-methoxyphenyl)piperidin-4-yl)piperazin-1-yl)acetyl)azetidin-3-yl)oxy)-2-(2,6-dioxopiperidin-3-yl)isoindoline-1,3-dione], the IC50 on EGFR^L858R/T790M/C797S, against ALK and against ALK^G1202R was 1 to 100 nM in each case. Also, the GI50 in assay [1] is > 300 nM.
With `COc1cc(N2CCC(N3CCN(CC(=O)N4CC(COc5cccc6c5C(=O)N(C5CCC(=O)NC5=O)C6=O)C4)CC3)CC2)ccc1Nc1ncc(Cl)c(Nc2ccccc2P(C)(C)=O)n1` (stereo not shown) [Compound C94, 4-((1-(2-(4-(1-(4-((5-chloro-4-((2-(dimethylphosphoryl)phenyl)amino)pyrimidin-2-yl)amino)-3-methoxyphenyl)piperidin-4-yl)piperazin-1-yl)acetyl)azetidin-3-yl)methoxy)-2-(2,6-dioxopiperidin-3-yl)isoindoline-1,3-dione], the concentration for half-maximal inhibition (IC50) on EGFR^L858R/T790M/C797S, on ALK and against ALK^G1202R was 1 to 100 nM throughout. In addition, the GI50 in assay [1] was > 300 nM.
Take `COc1cc(N2CCC(N3CCN(C(=O)CC4(CSCC(=O)Nc5cccc6c5C(=O)N(C5CCC(=O)NC5=O)C6=O)CC4)CC3)CC2)ccc1Nc1ncc(Cl)c(Nc2ccccc2P(C)(C)=O)n1` (stereo not shown) [Compound C103, 2-(((1-(2-(4-(1-(4-((5-chloro-4-((2-(dimethylphosphoryl)phenyl)amino)pyrimidin-2-yl)amino)-3-methoxyphenyl)piperidin-4-yl)piperazin-1-yl)-2-oxoethyl)cyclopropyl)methyl)thio)—N-(2-(2,6-dioxopiperidin-3-yl)-1,3-dioxoisoindolin-4-yl)acetamide]: the IC50 at EGFR^L858R/T790M/C797S is 201 to 300 nM; on ALK it was 1 to 100 nM; against ALK^G1202R it was > 300 nM.
As to `COc1cc(N2CCC(N3CCN(CC4(COc5cccc6c5C(=O)N(C5CCC(=O)NC5=O)C6=O)CC4)CC3)CC2)ccc1Nc1ncc(Cl)c(Nc2ccccc2P(C)(C)=O)n1` (stereo not shown) [Compound C106, 4-((1-((4-(1-(4-((5-chloro-4-((2-(dimethylphosphoryl)phenyl)amino)pyrimidin-2-yl)amino)-3-methoxyphenyl)piperidin-4-yl)piperazin-1-yl)methyl)cyclopropyl)methoxy)-2-(2,6-dioxopiperidin-3-yl)isoindoline-1,3-dione], the figures for the IC50 on EGFR^L858R/T790M/C797S, at ALK and at ALK^G1202R were 1 to 100 nM, 1 to 100 nM and 201 to 300 nM, respectively. In addition, the GI50 in assay [1] was > 300 nM.
Regarding `COc1cc(N2CCC(N3CCN(CC(=O)OCC4(COc5cccc6c5C(=O)N(C5CCC(=O)NC5=O)C6=O)CC4)CC3)CC2)ccc1Nc1ncc(Cl)c(Nc2ccccc2P(C)(C)=O)n1` (stereo not shown) [Compound C107, 2-(4-(1-(4-((5-chloro-4-((2-(dimethylphosphoryl)phenyl)amino)pyrimidin-2-yl)amino)-3-methoxyphenyl)piperidin-4-yl)piperazin-1-yl)acetate (1-(((2-(2,6-dioxopiperidin-3-yl)-1,3-dioxoisoindolin-4-yl)oxy)methyl)cyclopropyl)methyl ester], the IC50 at EGFR^L858R/T790M/C797S is 1 to 100 nM; against ALK it was 1 to 100 nM; at ALK^G1202R, 101 to 200 nM. In assay [1], the GI50 was in the range of 101 to 200 nM.
For `[2H]C([2H])(CCCCCCOc1cccc2c1C(=O)N(C1CCC(=O)NC1=O)C2=O)N1CCN(C2CCN(c3ccc(Nc4ncc(Cl)c(Nc5ccccc5P(C)(C)=O)n4)c(OC)c3)CC2)CC1` (stereo not shown) [Compound C164, 4-((7-(4-(1-(4-((5-chloro-4-((2-(dimethylphosphoryl)phenyl)amino)pyrimidin-2-yl)amino)-3-methoxyphenyl)piperidin-4-yl)piperazin-1-yl)heptyl-7,7-dideuterium)oxy)-2-(2,6-dioxopiperidin-3-yl)isoindoline-1,3-dione], the IC50 on EGFR^L858R/T790M/C797S was 1 to 100 nM. The GI50 (in assay [2]; on Ba/F3(EML4-ALK) cells) was 1 to 100 nM in each case.
